Experiments:
[1] = tested on: B16 murine melanoma model; experiment: Transplanted B16 melanoma tumor model in B6 mice: tumor appearance and growth under topical treatment; assay type: in vivo
Method: The effect of topical treatment with 0.1% diphencyprone in mice of the B6 strain transplanted tumor model was evaluated bl6. For which initially the animals were challenged with live cells reaching generating detectable tumors between 10 days until day 20 post challenge (FIG. 1). Tumor growth has a linear behavior reaching a peak at day 7 post near challenge (FIG. 2, black circles). […] For both cases the analysis of linear growth curves of both has no significant difference when comparing the slopes. Value p=0.85.

[2] = tested on: spleen lymphocyte populations; experiment: T lymphocyte populations in spleen of tumor-challenged treated mice (CD4, CD8, Treg, Th1, Th17); assay type: in vivo; conditions: b6 mice
Method: To analyze the effects of this treatment on lymphocyte populations T to determine if there was an analogy to these clinical cases effect, the treatment effect level spleen lymphocyte populations CD4 and CD8 was evaluated also subpopulations CD4 CD25 foxp3 which realizes regulatory T cells, the CD4+population Tbet+which realizes THL population and the presence of CD4+population+Ror range which realizes TH17 population. Treatment with DPCP associated tumor challenge, induced an increase in Th1 population present in spleen (FIG. 3). The analysis of mice treated b6 at least 8 experiment allows the characterization that this population increased compared to control animals, however, not be significant. […] Value p=0.59.
As for the previous case, it was determined that the effect of treatment, this time with DNCB on lymphocyte populations T as in previous case Treg (FIG. 8), Th1 (FIGS. 9A and 9B) and Th17 (FIG. 10) in b6 mice. […] Analysis of at least 8 animals per treatment let characterize the increase in this population is significant.
Finally, for the case of animals treated with liter extract, it was observed that tumor level, two behaviors that may indicate a temporary dynamic behavior of cell populations response to tumor level. […] Furthermore, the bearings of the other populations are inconclusive (FIG. 17B, 17C and 17D).

[3] = treatment associated with tumor challenge, versus control animals

`O=c1c(-c2ccccc2)c1-c1ccccc1` [DPCP, diphencyprone] was tested, and the “overall effect of curative treatment on tumor model” value ([1]; mice, DPCP 0.1% to 1%) was “not have major effects”, the “Tumor growth (time 0 = tumor mass detected) versus control animals treated with excipients” value ([1]; topical 0.1% DPCP, B6 mice) was “no difference” and the “tumor appearance, average detection” value ([1]; topical 0.1% diphencyprone, B6 mice, post challenge, shift from 13 days, change not significant) was 16 days. For the same compound, the “Th1 population (CD4+ Tbet+) present in spleen” value [2, 3] was “increase”, the “Th17 population (CD4+ Ror gamma+) present in spleen” value [2, 3] was “showed no change” and the “Treg population (CD4 CD25 foxp3) in spleen” value [2, 3] was “showed no change”. The “CD8 or CD4 populations associated with treatment” value ([2]; tumor challenge) was “No significant changes”.

Source: US20190321429A1, “TOPICAL NATURAL LITHRAEA CAUSTICA EXTRACT COMPOSITION AND USE THEREOF IN TUMOURS” (UNIVERSIDAD DE SANTIAGO DE CHILE, priority 2016, published 2019)
